Test results from ChEMBL document CHEMBL1123730, “Synthesis and pharmacological evaluation of a new class of 2-(2-aminothiazol-4-yl)-2-hydrazonoacetamido cephalosporins” (J Med Chem, 1987).
Values after ≈ are worked out from the molar mass of the structure shown. Each block holds one molecule with its values, some of them ahead of it.

What was measured:
Alcaligenes [1] = test: Geometrical average of minimum bactericidal concentration was determined in isosensitest broth against Alcaligenes; type: functional
Enterobacter [2] = test: Geometrical average of minimum bactericidal concentration was determined in isosensitest broth against Enterobacter; type: functional
Pseudomonas [3] = test: Geometrical average of minimum bactericidal concentration was determined in isosensitest broth against Pseudomonas; type: functional
Salmonella [4] = test: Geometrical average of minimum bactericidal concentration was determined in isosensitest broth against Salmonella; type: functional
Neisseria perflava [5] = test: Geometrical average of minimum inhibitory concentration was determined in isosensitest broth against Neisseria perfl.; type: functional
Escherichia coli [6] = test: Geometrical average of minimum inhibitory concentration was determined in isosensitest broth against Escherichia coli; type: functional
Sarcina [7] = test: Geometrical average of minimum inhibitory concentration was determined in isosensitest broth against Sarcina; type: functional
Enterobacter [8] = test: Geometrical average of minimum inhibitory concentration was determined in isosensitest broth against Enterobacter; type: functional
Escherichia coli [9] = test: In vivo protective dose was determined in infected swiss mice (120/strain) infected ip with Escherichia coli ISM with an inoculum size-0.5 mL of 10 E6 CFU/mL of suspension. Activity value range is 0.118-0.615; type: functional
Klebsiella [10] = test: Geometrical average of minimum bactericidal concentration was determined in isosensitest broth against Klebsiella; type: functional
Klebsiella pneumoniae [11] = test: In vivo protective dose was determined in infected swiss mice (120/strain) infected ip with Klebsiella pneumoniae 102 with an inoculum size-0.5 mL of 10 E5 CFU/mL of suspension. Activity value range is 1.82-7.92; type: functional
Bacillus [12] = test: Geometrical average of minimum inhibitory concentration was determined in isosensitest broth against Bacillus; type: functional
Alcaligenes [13] = test: Geometrical average of minimum inhibitory concentration was determined in isosensitest broth against Alcaligenes; type: functional
[14] = Geometrical average of minimum inhibitory concentration was determined in isosensitest broth against, gram-positive strains.; type: functional
Neisseria perflava [15] = test: Geometrical average of minimum bactericidal concentration was determined in isosensitest broth against Neisseria perfl.; type: functional
Staphylococcus [16] = test: (§1) Geometrical average of minimum bactericidal concentration was determined in isosensitest broth against Staphylococcus; type: functional
Salmonella [17] = test: Geometrical average of minimum inhibitory concentration was determined in isosensitest broth against Salmonella; type: functional
Proteus [18] = test: Geometrical average of minimum bactericidal concentration was determined in isosensitest broth against Proteus; type: functional, Proteus sp.
Streptococcus [19] = test: Geometrical average of minimum bactericidal concentration was determined in isosensitest broth against Streptococcus; type: functional
Streptococcus [20] = test: Geometrical average of minimum inhibitory concentration was determined in isosensitest broth against Streptococcus; type: functional
Sarcina [21] = test: Geometrical average of minimum bactericidal concentration was determined in isosensitest broth against Sarcina; type: functional
Serratia [22] = test: Geometrical average of minimum bactericidal concentration was determined in isosensitest broth against Serratia; type: functional
Bacillus [23] = test: Geometrical average of minimum bactericidal concentration was determined in isosensitest broth against Bacillus; type: functional
Klebsiella [24] = test: Geometrical average of minimum inhibitory concentration was determined in isosensitest broth against Klebsiella; type: functional
Pseudomonas [25] = test: Geometrical average of minimum inhibitory concentration was determined in isosensitest broth against Pseudomonas; type: functional
Staphylococcus [26] = test: (§2) Geometrical average of minimum inhibitory concentration was determined in isosensitest broth against Staphylococcus; type: functional
Escherichia coli [27] = test: Geometrical average of minimum bactericidal concentration was determined in isosensitest broth against Escherichia coli; type: functional
Klebsiella pneumoniae [28] = test: Minimum inhibitory concentration was determined against Klebsiella pneumoniae 102 with an inoculum size-0.5 mL of 10 E5 CFU/mL of suspension; type: functional
[29] = Geometrical average of minimum inhibitory concentration in isosensitest broth against, gram-negative strains.; type: functional
Staphylococcus [30] = test: as §2; type: functional; remark: listed apart in the source
Staphylococcus [31] = test: as §1; type: functional; remark: listed apart in the source
Escherichia coli [32] = test: Minimum inhibitory concentration was determined against Escherichia coli ISM with an inoculum size-0.5 mL of 10 E6 CFU/mL of suspension; type: functional
Proteus [33] = test: Geometrical average of minimum inhibitory concentration was determined in isosensitest broth against Proteus; type: functional, Proteus sp.
Serratia [34] = test: Geometrical average of minimum inhibitory concentration was determined in isosensitest broth against Serratia; type: functional
[35] = Geometrical average of minimum inhibitory concentration was determined in isosensitest broth against gram-positive strains.; type: functional
[36] = Geometrical average of minimum inhibitory concentration was determined in isosensitest broth against gram-negative strains.; type: functional
Klebsiella pneumoniae [37] = test: Minimum inhibitory concentration against Klebsiella pneumoniae 102 with an inoculum size-0.5 mL of 10 E5 CFU/mL of suspension; type: functional
Staphylococcus [38] = test: (§3) Geometrical average of minimum bactericidal concentration was determined in isosensitest against Staphylococcus; type: functional
Enterobacter [39] = test: Geometrical average of minimum bactericidal concentration was determined in isosensitest against Enterobacter; type: functional
Streptococcus [40] = test: Geometrical average of minimum bactericidal concentration was determined in isosensitest against Streptococcus; type: functional
Klebsiella pneumoniae [41] = test: In vivo protective dose was determined in infected swiss mice (120/strain) infected ip Klebsiella pneumoniae 102 with an inoculum size-0.5 mL of 10 E5 CFU/mL of suspension. Activity value range is 5.27-15.35; type: functional
Alcaligenes [42] = test: Geometrical average of minimum bactericidal concentration was determined in isosensitest against Alcaligenes; type: functional
Sarcina [43] = test: Geometrical average of minimum inhibitory concentration (MIC) in isosensitest broth against Sarcina; type: functional
Salmonella typhimurium [44] = test: Minimum inhibitory concentration against Salmonella Typhimurium T.O with an inoculum size-0.5 mL of 10 E6 CFU/mL of suspension; type: functional, Salmonella enterica subsp. enterica serovar Typhimurium; conditions: Salmonella enterica
Neisseria perflava [45] = test: Geometrical average of minimum bactericidal concentration was determined in isosensitest against Neisseria perfl.; type: functional
Sarcina [46] = test: Geometrical average of minimum bactericidal concentration was determined in isosensitest against Sarcina; type: functional
[47] = Geometrical average of minimum inhibitory concentration was determined in isosensitest broth against,gram-negative strains.; type: functional
Staphylococcus [48] = test: as §3; type: functional; remark: listed apart in the source
Bacillus [49] = test: Geometrical average of minimum bactericidal concentration was determined in isosensitest against Bacillus; type: functional
Escherichia coli [50] = test: In vivo protective dose was determined in infected swiss mice (120/strain) infected ip with Escherichia coli ISM with an inoculum size-0.5 mL of 10 E6 CFU/mL of suspension. Activity value range is 3.47-6.63; type: functional
Escherichia coli [51] = test: Minimum inhibitory concentration against, Escherichia coli ISM with an inoculum size-0.5 mL of 10 E6 CFU/mL of suspension); type: functional
Salmonella typhimurium [52] = test: In vivo protective dose was determined in infected swiss mice (120/strain) infected ip against Salmonella Typhimurium T.O with an inoculum size-0.5 mL of 10 E6 CFU/mL of suspension; type: functional, Salmonella enterica subsp. enterica serovar Typhimurium; conditions: Salmonella enterica
Escherichia coli [53] = test: Geometrical average of minimum bactericidal concentration was determined in isosensitest broth against, Escherichia coli; type: functional

SMILES: CO/N=C(\C(=O)N[C@@H]1C(=O)N2C(C(=O)O)=C(COC(C)=O)CS[C@H]12)c1csc(N)n1 [CEFOTAXIME]
MBC (Alcaligenes [1]): 3.12 µg/mL (≈ 6.85 µM)
MBC (Enterobacter [2]): 1.97 µg/mL (≈ 4.33 µM)
MBC (Pseudomonas [3]): 22.3 µg/mL (≈ 48.9 µM)
MBC (Salmonella [4]): 0.38 µg/mL (≈ 0.834 µM)
MIC (Neisseria perflava [5]): < 0.09 µg/mL
MIC (Escherichia coli [6]): 0.17 µg/mL (≈ 0.373 µM)
MIC (Sarcina [7]): 0.04 µg/mL (≈ 0.0878 µM)
MIC (Enterobacter [8]): 0.31 µg/mL (≈ 0.681 µM)
ED50 (Escherichia coli [9]): 0.27 mg/kg
MBC (Klebsiella [10]): 0.14 µg/mL (≈ 0.307 µM)
ED50 (Klebsiella pneumoniae [11]): 3.8 mg/kg
MIC (Bacillus [12]): 25 µg/mL (≈ 54.9 µM)
MIC (Alcaligenes [13]): 1.56 µg/mL (≈ 3.43 µM)
MIC [14]: 2.09 µg/mL (≈ 4.59 µM)
MBC (Neisseria perflava [15]): < 0.09 µg/mL
MBC (Staphylococcus [16]): 3.23 µg/mL (≈ 7.09 µM)
MIC (Salmonella [17]): 0.24 µg/mL (≈ 0.527 µM)
MBC (Proteus [18]): 0.3 µg/mL (≈ 0.659 µM)
MBC (Streptococcus [19]): 35.4 µg/mL (≈ 77.6 µM)
MIC (Streptococcus [20]): 12.3 µg/mL (≈ 27.1 µM)
MBC (Sarcina [21]): 0.04 µg/mL (≈ 0.0878 µM)
MBC (Serratia [22]): 0.49 µg/mL (≈ 1.08 µM)
MBC (Bacillus [23]): 29.7 µg/mL (≈ 65.3 µM)
MIC (Klebsiella [24]): 0.12 µg/mL (≈ 0.263 µM)
MIC (Pseudomonas [25]): 21.8 µg/mL (≈ 47.9 µM)
MIC (Staphylococcus [26]): 5.25 µg/mL (≈ 11.5 µM)
MBC (Escherichia coli [27]): 0.25 µg/mL (≈ 0.549 µM)
MIC (Klebsiella pneumoniae [28]): 0.13 µg/mL (≈ 0.285 µM)
MIC [29]: 0.17 µg/mL (≈ 0.373 µM)
MIC (Staphylococcus [30]): 1.61 µg/mL (≈ 3.53 µM)
MBC (Staphylococcus [31]): 25 µg/mL (≈ 54.9 µM)
MIC (Escherichia coli [32]): 0.55 µg/mL (≈ 1.21 µM)
MIC (Proteus [33]): 0.08 µg/mL (≈ 0.176 µM)
MIC (Serratia [34]): 0.09 µg/mL (≈ 0.198 µM)

SMILES: CCOC(=O)CN/N=C(/C(=O)N[C@@H]1C(=O)N2C(C(=O)O)=C(CSc3nnnn3C)CS[C@H]12)c1csc(N)n1
MIC [35]: 13.2 µg/mL (≈ 22.7 µM)
MIC [36]: 5.45 µg/mL (≈ 9.35 µM)

SMILES: CO/N=C(\C(=O)N[C@@H]1C(=O)N2C(C(=O)O)=C(COC(N)=O)CS[C@H]12)c1ccco1 [CEFUROXIME]
MIC (Klebsiella pneumoniae [37]): 12.5 µg/mL (≈ 29.5 µM)
MBC (Staphylococcus [38]): 1.67 µg/mL (≈ 3.94 µM)
MBC (Pseudomonas [3]): > 100 µg/mL
MBC (Salmonella [4]): 6.7 µg/mL (≈ 15.8 µM)
MIC (Neisseria perflava [5]): 0.39 µg/mL (≈ 0.919 µM)
MIC (Escherichia coli [6]): 2.2 µg/mL (≈ 5.18 µM)
MBC (Enterobacter [39]): 25 µg/mL (≈ 58.9 µM)
MIC (Enterobacter [8]): 7.01 µg/mL (≈ 16.5 µM)
MBC (Streptococcus [40]): 59.5 µg/mL (≈ 140 µM)
MBC (Klebsiella [10]): 4.68 µg/mL (≈ 11 µM)
MIC (Bacillus [12]): 35.4 µg/mL (≈ 83.3 µM)
ED50 (Klebsiella pneumoniae [41]): 9 mg/kg
MBC (Alcaligenes [42]): 100 µg/mL (≈ 236 µM)
MIC (Alcaligenes [13]): 50 µg/mL (≈ 118 µM)
MIC [14]: 1.11 µg/mL (≈ 2.62 µM)
MIC (Sarcina [43]): 0.39 µg/mL (≈ 0.919 µM)
MIC (Salmonella [17]): 3.12 µg/mL (≈ 7.35 µM)
MIC (Salmonella typhimurium [44]): 1.56 µg/mL (≈ 3.68 µM)
MBC (Neisseria perflava [45]): 0.78 µg/mL (≈ 1.84 µM)
MBC (Proteus [18]): 3.9 µg/mL (≈ 9.19 µM)
MBC (Sarcina [46]): 0.55 µg/mL (≈ 1.3 µM)
MIC (Streptococcus [20]): 15.1 µg/mL (≈ 35.7 µM)
MIC [47]: 10.6 µg/mL (≈ 25.1 µM)
MBC (Serratia [22]): 28 µg/mL (≈ 66 µM)
MIC (Klebsiella [24]): 3.71 µg/mL (≈ 8.74 µM)
MBC (Staphylococcus [48]): 17.7 µg/mL (≈ 41.7 µM)
MIC (Pseudomonas [25]): > 100 µg/mL
MBC (Bacillus [49]): 35.4 µg/mL (≈ 83.3 µM)
MIC (Staphylococcus [26]): 10.5 µg/mL (≈ 24.8 µM)
ED50 (Escherichia coli [50]): 4.8 mg/kg
MIC (Escherichia coli [51]): 2.2 µg/mL (≈ 5.18 µM)
ED50 (Salmonella typhimurium [52]): > 90 mg/kg
MIC (Staphylococcus [30]): 1.06 µg/mL (≈ 2.5 µM)
MBC (Escherichia coli [53]): 4.42 µg/mL (≈ 10.4 µM)
MIC (Proteus [33]): 1.97 µg/mL (≈ 4.64 µM)
MIC (Serratia [34]): 12.4 µg/mL (≈ 29.2 µM)

Second part, the molecule after the results:

MIC [35]: 18.6 µg/mL (≈ 34.6 µM)
MIC [36]: 3.54 µg/mL (≈ 6.56 µM)
SMILES: Cn1nnnc1SCC1=C(C(=O)O)N2C(=O)[C@@H](NC(=O)/C(=N\NC(N)=O)c3csc(N)n3)[C@H]2SC1

MIC [35]: 7.35 µg/mL (≈ 16.7 µM)
MIC [36]: 1.96 µg/mL (≈ 4.45 µM)
SMILES: CC(=O)OCC1=C(C(=O)O)N2C(=O)[C@@H](NC(=O)/C(=N/N)c3csc(N)n3)[C@H]2SC1

MIC [35]: 18 µg/mL (≈ 32.5 µM)
MIC [36]: 8.59 µg/mL (≈ 15.5 µM)
SMILES: Cn1nnnc1SCC1=C(C(=O)O)N2C(=O)[C@@H](NC(=O)/C(=N/NCC(=O)O)c3csc(N)n3)[C@H]2SC1

MIC [35]: 76.5 µg/mL (≈ 142 µM)
MIC [36]: 16.8 µg/mL (≈ 31.2 µM)
SMILES: Cn1nnnc1SCC1=C(C(=O)O)N2C(=O)[C@@H](NC(=O)/C(=N/NC(N)=O)c3csc(N)n3)[C@H]2SC1
